# Literature values in publication PMC4061760 (Tetrahedron, 2009).
# Test system: Plk1 PBD
# Settings: 5-mer phosphopeptide
substance,measurement,value
PLHSpT [Peptide 22],interaction with the Plk1 PBD,specifically interacts with the Plk1 PBD with high affinity
